This passage reports IC50 results from US20120208809A1, “9H-PYRROLO[2,3-B: 5,4-C'] DIPYRIDINE AZACARBOLINE DERIVATIVES, PREPARATION THEREOF, AND THERAPEUTIC USE THEREOF” (SANOFI, priority 2009, published 2012).

The target of one test is CDK1 (Homo sapiens, UniProt P06493). The experiment in a line: Biochemical results, IC50 CDK1.
In another test the target is T1, Pim-3 (Homo sapiens, UniProt Q86V86).
T1 construct: full-length human recombinant His6-labelled Pim-1, Pim-2 or Pim-3 protein; His6; made in house
The experiment in a line: TR-FRET assay of Pim kinase activity (phosphorylation of Bad Ser112), Pim-3. In kind it is biochemical. The conditions noted are these: ATP 40 μM, read-out: IC50 Pim3. As to the method:
(§1) In order to determine the inhibition of Pim kinase activity, the compounds of the invention are tested in accordance with a routinely-used in-vitro TR-FRET assay (“Time Resolved-Fluorescence Resonance Energy Transfer”). […] For the assay, the following reagents are used:
(§2) Pim kinase—full-length human recombinant His6-labelled Pim-1, Pim-2 or Pim-3 protein (prepared according to J. Mol. Biol. (2005) 348, 183-193); Bad—full-length human recombinant His6-labelled Bad protein (prepared according to J. Mol. Biol. (2005) 348, 183-193); α-His6-APC—mouse monoclonal antibody conjugated to allophycocyanine SureLight™ directed against the His6 label (Perkin-Elmer, No. AD0059H, Waltham, Mass., United States); α-P˜Bad-Eu—mouse monoclonal antibody (Cell Signaling Technology #9296B, Danvers, Mass., United States) directed against phosphoBad (Ser112) (7E11) labelled on request by Perkin-Elmer with the reagent LANCE™ Eu-W1024.
(§3) The assay is based on the LANCE™ technology from Perkin-Elmer: the Eu-labelled antibody binds to phospho-Ser112 and generates a TR-FRET signal by interaction with the […] antibody directed against His6, bound to the His6 label of Bad. The TR-FRET signal is detected using a SpectraMax M5 plate reader (Molecular Devices) with the following settings: λex=340 nm, λem1=615 nm, λem2=665 nm. The ratio of the fluorescence signal at 665 nm to the fluorescence signal at 615 nm is used as the signal reading for the IC50 (calculations based on the 4-parameter logistic model). The assay is performed in 384-well format; the liquid manipulations are performed using a Beckmann 3000 liquid manipulation station. The test compounds are tested at 10 concentration points in duplicate; the highest concentration of compound is typically equal to 30 μM. The ATP concentration is equal to 40 μM.
(TR-FRET usually uses a lanthanide donor and a delayed reading to cut background.)

The next test has as its target T2, Pim-2 (Homo sapiens, UniProt Q9P1W9).
T2 construct: full-length human recombinant His6-labelled Pim-1, Pim-2 or Pim-3 protein; His6; made in house
As to the kind of experiment: TR-FRET assay of Pim kinase activity (phosphorylation of Bad Ser112), Pim-2. The test is classed as biochemical. To be noted: ATP 40 μM, read-out: IC50 Pim2. As for the experimental part:
as §1, §2, §3

Another test addresses T3, Pim-1 (Homo sapiens, UniProt P11309).
T3 construct: full-length human recombinant His6-labelled Pim-1, Pim-2 or Pim-3 protein; His6; made in house
The experiment in a line: TR-FRET assay of Pim kinase activity (phosphorylation of Bad Ser112), Pim-1. To be noted: ATP 40 μM, read-out: IC50 Pim1. The test is classed as biochemical. As to the method:
as §1, §2, §3

Another test concerns the target PLK1 (Homo sapiens, UniProt P53350). The experiment in a line: Biochemical results, IC50 PLK1.

Sequence of PLK1 (P53350 whole entry, species assumed): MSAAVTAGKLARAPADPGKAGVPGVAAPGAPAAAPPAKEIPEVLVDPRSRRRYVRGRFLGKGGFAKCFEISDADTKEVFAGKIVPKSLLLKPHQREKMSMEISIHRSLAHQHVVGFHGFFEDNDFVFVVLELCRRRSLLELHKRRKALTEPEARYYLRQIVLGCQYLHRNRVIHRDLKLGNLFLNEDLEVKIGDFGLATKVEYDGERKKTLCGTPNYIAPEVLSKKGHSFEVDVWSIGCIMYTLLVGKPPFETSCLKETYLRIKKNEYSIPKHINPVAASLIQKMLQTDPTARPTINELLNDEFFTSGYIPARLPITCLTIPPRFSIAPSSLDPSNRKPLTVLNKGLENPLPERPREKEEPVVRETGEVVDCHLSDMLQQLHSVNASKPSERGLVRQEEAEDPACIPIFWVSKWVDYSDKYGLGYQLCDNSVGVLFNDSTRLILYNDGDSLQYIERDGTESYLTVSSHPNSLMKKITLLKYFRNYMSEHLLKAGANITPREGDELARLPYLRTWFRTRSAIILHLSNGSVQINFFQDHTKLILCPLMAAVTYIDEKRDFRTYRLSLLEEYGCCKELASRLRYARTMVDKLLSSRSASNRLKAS
Sequence of CDK1 (P06493 whole entry, species assumed): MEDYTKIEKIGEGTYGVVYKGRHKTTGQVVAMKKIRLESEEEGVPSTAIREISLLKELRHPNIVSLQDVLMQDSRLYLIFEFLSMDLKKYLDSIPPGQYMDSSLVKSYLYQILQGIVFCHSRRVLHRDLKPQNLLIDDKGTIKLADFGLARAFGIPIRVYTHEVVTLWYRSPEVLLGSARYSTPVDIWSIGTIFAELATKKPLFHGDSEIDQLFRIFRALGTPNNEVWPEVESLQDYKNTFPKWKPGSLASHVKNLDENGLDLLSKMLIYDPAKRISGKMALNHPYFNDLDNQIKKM
Sequence of CDK1 (P14635 whole entry partner, species assumed): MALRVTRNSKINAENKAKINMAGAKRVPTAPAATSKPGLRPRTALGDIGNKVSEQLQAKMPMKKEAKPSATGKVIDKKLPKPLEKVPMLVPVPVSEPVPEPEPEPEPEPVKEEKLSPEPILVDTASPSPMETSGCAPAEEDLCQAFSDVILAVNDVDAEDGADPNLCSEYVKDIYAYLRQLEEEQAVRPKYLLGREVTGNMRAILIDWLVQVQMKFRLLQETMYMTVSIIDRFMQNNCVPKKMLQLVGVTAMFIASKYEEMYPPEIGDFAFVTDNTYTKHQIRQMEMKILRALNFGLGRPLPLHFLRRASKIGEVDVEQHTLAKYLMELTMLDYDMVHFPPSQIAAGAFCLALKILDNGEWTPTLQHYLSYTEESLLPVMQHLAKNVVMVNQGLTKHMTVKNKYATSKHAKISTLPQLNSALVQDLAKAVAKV
T3 sequence (P11309 whole entry): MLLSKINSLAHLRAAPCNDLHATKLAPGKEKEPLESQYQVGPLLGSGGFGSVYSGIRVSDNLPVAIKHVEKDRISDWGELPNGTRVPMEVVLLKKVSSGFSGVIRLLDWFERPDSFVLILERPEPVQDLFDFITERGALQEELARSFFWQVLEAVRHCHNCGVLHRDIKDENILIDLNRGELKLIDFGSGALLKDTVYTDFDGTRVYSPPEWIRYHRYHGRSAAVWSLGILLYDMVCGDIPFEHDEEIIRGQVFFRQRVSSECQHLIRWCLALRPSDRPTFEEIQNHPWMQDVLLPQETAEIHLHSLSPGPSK
T2 sequence (Q9P1W9 whole entry): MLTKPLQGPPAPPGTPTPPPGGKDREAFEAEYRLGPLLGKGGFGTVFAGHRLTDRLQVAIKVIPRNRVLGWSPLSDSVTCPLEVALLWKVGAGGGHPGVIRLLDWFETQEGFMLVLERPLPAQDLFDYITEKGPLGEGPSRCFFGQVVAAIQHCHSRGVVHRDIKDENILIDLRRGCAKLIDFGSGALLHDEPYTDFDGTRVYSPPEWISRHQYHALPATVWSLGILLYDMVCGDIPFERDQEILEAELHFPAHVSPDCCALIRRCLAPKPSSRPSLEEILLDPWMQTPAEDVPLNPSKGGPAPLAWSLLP

Consider `CCN(CCN(C)C)C(=O)c1ccc(-c2c(F)cnc3[nH]c4cnc(-c5cccnc5)cc4c23)cc1` [Example 67, N-[2-(dimethylamino)ethyl]-N-ethyl-4-[3-fluoro-6-(pyridin-3-yl)-9H-pyrrolo[2,3-b:5,4-c′]dipyridin-4-yl]benzamide], for which the IC50 is 1 to 5 µM at CDK1; < 0.1 µM on Pim-3; < 0.1 µM at Pim-2; < 0.1 µM at Pim-1; 0.1 to 1 µM against PLK1.
As for `CCN(CC)CCN(C)C(=O)c1ccc(-c2c(F)cnc3[nH]c4cnc(-c5cccnc5)cc4c23)cc1` [Example 71, N-[2-(diethylamino)ethyl]-4-[3-fluoro-6-(pyridin-3-yl)-9H-pyrrolo[2,3-b:5,4-c′]dipyridin-4-yl]-N-methylbenzamide], the half-inhibitory concentration (IC50) is 1 to 5 µM against CDK1; < 0.1 µM on Pim-3; 1 to 5 µM on Pim-2; < 0.1 µM at Pim-1; 1 to 5 µM against PLK1.
Consider `COCCCNC(=O)c1ccc(-c2c(F)cnc3[nH]c4cnc(-c5cccnc5)cc4c23)cc1` [Example 17, 4-[3-fluoro-6-(pyridin-3-yl)-9H-pyrrolo[2,3-b:5,4-c′]dipyridin-4-yl]-N-(3-methoxypropyl)benzamide], for which the IC50 is 0.1 to 1 µM at Pim-3, 1 to 5 µM on Pim-2 and < 0.1 µM on Pim-1.
On to `CCN1CCCC1CNC(=O)c1ccc(-c2c(F)cnc3[nH]c4cnc(-c5cccnc5)cc4c23)cc1` (centres unmarked) [Example 51, N-[(1-ethylpyrrolidin-2-yl)methyl]-4-[3-fluoro-6-(pyridin-3-yl)-9H-pyrrolo[2,3-b:5,4-c′]dipyridin-4-yl]benzamide], for which the IC50 is 1 to 5 µM against CDK1; < 0.1 µM on Pim-3; 0.1 to 1 µM at Pim-2; < 0.1 µM at Pim-1; 0.1 to 1 µM at PLK1.
For the compound `CCN1CCC[C@H]1CNC(=O)c1ccc(-c2c(F)cnc3[nH]c4cnc(-c5cccnc5)cc4c23)cc1` [Example 53, N-{[(2S)-1-ethylpyrrolidin-2-yl]methyl}-4-[3-fluoro-6-(pyridin-3-yl)-9H-pyrrolo[2,3-b:5,4-c′]dipyridin-4-yl]benzamide], the IC50 against CDK1 is 1 to 5 µM; at Pim-3, < 0.1 µM; at Pim-2 it was 0.1 to 1 µM; at Pim-1, < 0.1 µM; on PLK1, 0.1 to 1 µM.
On to `O=C(NCCNCCO)c1ccc(-c2c(F)cnc3[nH]c4cnc(-c5cccnc5)cc4c23)cc1` [Example 27, 4-[3-fluoro-6-(pyridin-3-yl)-9H-pyrrolo[2,3-b:5,4-c′]dipyridin-4-yl]-N-{2-[(2-hydroxyethyl)amino]ethyl}benzamide], for which the IC50 on CDK1 is 1 to 5 µM; on Pim-3 it was < 0.1 µM; at Pim-2, < 0.1 µM; on Pim-1, < 0.1 µM; against PLK1 it was 0.1 to 1 µM.
Regarding `CN1CCC(N(C)C(=O)c2ccc(-c3c(F)cnc4[nH]c5cnc(-c6cccnc6)cc5c34)cc2)C1` (centres unmarked) [Example 70, 4-[3-fluoro-6-(pyridin-3-yl)-9H-pyrrolo[2,3-b:5,4-c′]dipyridin-4-yl]-N-methyl-N-(1-methylpyrrolidin-3-yl)benzamide], the IC50 against CDK1 is 1 to 5 µM; at Pim-3 it was 0.1 to 1 µM; on Pim-2, 1 to 5 µM; on Pim-1 it was < 0.1 µM; on PLK1, 1 to 5 µM.
For `CN1CCN(NC(=O)c2ccc(-c3c(F)cnc4[nH]c5cnc(-c6cnn(C)c6)cc5c34)cc2)CC1` [Example 99, 4-[3-fluoro-6-(1-methyl-1H-pyrazol-4-yl)-9H-pyrrolo[2,3-b:5,4-c′]dipyridin-4-yl]-N-(4-methylpiperazin-1-yl)benzamide], the IC50 against CDK1 is 1 to 5 µM; on Pim-3 it was < 0.1 µM; on Pim-2 it was 0.1 to 1 µM; at Pim-1, < 0.1 µM; against PLK1, > 5 µM.
Consider `CN1CCN(C(=O)c2ccc(-c3c(F)cnc4[nH]c5cnc(-c6cccnc6)cc5c34)cc2)CC1` [Example 16, {4-[3-fluoro-6-(pyridin-3-yl)-9H-pyrrolo[2,3-b:5,4-c′]dipyridin-4-yl]phenyl}(4-methylpiperazin-1-yl)methanone], for which the half-inhibitory concentration (IC50) was 0.1 to 1 µM at Pim-3, 1 to 5 µM on Pim-2 and < 0.1 µM on Pim-1.
Regarding `N[C@H]1CCC[C@@H]1NC(=O)c1ccc(-c2c(F)cnc3[nH]c4cnc(-c5cccnc5)cc4c23)cc1` [Example 85, N-[(1S,2S)-2-aminocyclopentyl]-4-[3-fluoro-6-(pyridin-3-yl)-9H-pyrrolo[2,3-b:5,4-c′]dipyridin-4-yl]benzamide], the IC50 on Pim-3, at Pim-2 and on Pim-1 was < 0.1 µM throughout.
In the case of `N[C@@H]1CCC[C@H]1NC(=O)c1ccc(-c2c(F)cnc3[nH]c4cnc(-c5cccnc5)cc4c23)cc1` [Example 86, N-[(1R,2R)-2-aminocyclopentyl]-4-[3-fluoro-6-(pyridin-3-yl)-9H-pyrrolo[2,3-b:5,4-c′]dipyridin-4-yl]benzamide], the half-inhibitory concentration (IC50) on Pim-3, on Pim-2 and at Pim-1 was < 0.1 µM each time.
`CN(C)CCNC(=O)c1ccc(-c2c(F)cnc3[nH]c4cnc(-c5cccnc5)cc4c23)cn1` [Example 112, N-[2-(dimethylamino)ethyl]-5-[3-fluoro-6-(pyridin-3-yl)-9H-pyrrolo[2,3-b:5,4-c′]dipyridin-4-yl]pyridine-2-carboxamide]: the IC50 at Pim-3 lay in the range of 0.1 to 1 µM; on Pim-2, 1 to 5 µM; on Pim-1, 0.1 to 1 µM.
Consider `COCCNC(=O)c1ccc(-c2c(F)cnc3[nH]c4cnc(-c5cccnc5)cc4c23)cc1` [Example 14, 4-[3-fluoro-6-(pyridin-3-yl)-9H-pyrrolo[2,3-b:5,4-c′]dipyridin-4-yl]-N-(2-methoxyethyl)benzamide], for which the results for the half-maximal inhibitory concentration (IC50) at Pim-3, at Pim-2 and at Pim-1 were 0.1 to 1 µM, 1 to 5 µM and < 0.1 µM, respectively.
For `O=C(c1cccc(-c2c(F)cnc3[nH]c4cnc(-c5cccnc5)cc4c23)c1)N1CCOCC1` [Example 15, {3-[3-fluoro-6-(pyridin-3-yl)-9H-pyrrolo[2,3-b:5,4-c′]dipyridin-4-yl]phenyl}(morpholin-4-yl)methanone], in that order: 1 to 5 µM, > 5 µM and 0.1 to 1 µM.
On to `N[C@@H]1CCCC[C@H]1NC(=O)c1ccc(-c2c(F)cnc3[nH]c4cnc(-c5cccnc5)cc4c23)cc1` [Example 83, N-[(1R,2R)-2-aminocyclohexyl]-4-[3-fluoro-6-(pyridin-3-yl)-9H-pyrrolo[2,3-b:5,4-c′]dipyridin-4-yl]benzamide], for which the IC50 on Pim-3, at Pim-2 and on Pim-1 was < 0.1 µM in each case.
In the case of `O=C(c1ccc(-c2c(F)cnc3[nH]c4cnc(-c5cccnc5)cc4c23)cc1)N1CCOCC1` [Example 13, {4-[3-fluoro-6-(pyridin-3-yl)-9H-pyrrolo[2,3-b:5,4-c′]dipyridin-4-yl]phenyl}(morpholin-4-yl)methanone], the IC50 on Pim-3 was 0.1 to 1 µM; at Pim-2 it was 1 to 5 µM; on Pim-1 it was < 0.1 µM.
Take `CN(C)CCNC(=O)c1ccc(-c2c(F)cnc3[nH]c4cnc(-c5cccnc5)cc4c23)cc1F` [Example 113, N-[2-(dimethylamino)ethyl]-2-fluoro-4-[3-fluoro-6-(pyridin-3-yl)-9H-pyrrolo[2,3-b:5,4-c′]dipyridin-4-yl]benzamide]: the results for the IC50 on Pim-3, on Pim-2 and at Pim-1 were < 0.1 µM, 0.1 to 1 µM and < 0.1 µM, respectively.

As a reminder, the IC50 is the point on the concentration scale where inhibition reaches its midpoint.
